Assays:
[1] = Concentration in water to achieve pH=7; assay type: physicochemical
[2] = Water activity analysis (slurries) of sesquifumaric acid salt forms; assay type: physicochemical; conditions: water activity slurry, 0.22 aw (and up)
[3] = Physical stability analysis of sesquifumaric acid salt forms (drying, heating); assay type: physicochemical
[4] = from 5 to 95% RH
Protocol: Moisture sorption/desorption data were collected on a VTI SGA-100 Vapor Sorption Analyzer. NaCl and PVP were used as calibration standards. Samples were not dried prior to analysis. Sorption and desorption data were collected over a range from 5% to 95% RH at 10% RH increments under a nitrogen purge. The equilibrium criterion used for analysis was less than 0.0100% weight change in 5 minutes with a maximum equilibration time of 3 hours. Data were not corrected for the initial moisture content of the samples.

CCN(C(=O)c1cc(F)ccc1Oc1cncnc1N1CC2(CCN(CC3CCC(NS(=O)(=O)CC)CC3)CC2)C1)C(C)C.Cl.Cl (stereo not drawn) [Example 257, N-Ethyl-2-((4-(7-(((1r,4r)-4-(ethylsulfonamido)cyclohexyl)methyl)-2,7-diazaspiro[3.5]nonan-2-yl)pyrimidin-5-yl)oxy)-5-fluoro-N-isopropylbenzamide Bis-Hydrochloric Acid Salt]
Concentration in water to achieve pH=7 [1]: 317.6 mg/mL

CC(C)N(C(=O)c1cc(F)ccc1Oc1cncnc1N1CC2(CCN(C[C@H]3CC[C@H](NS(C)(=O)=O)CC3)CC2)C1)C(C)C.CC(C)N(C(=O)c1cc(F)ccc1Oc1cncnc1N1CC2(CCN(C[C@H]3CC[C@H](NS(C)(=O)=O)CC3)CC2)C1)C(C)C.O=C(O)/C=C/C(=O)O.O=C(O)/C=C/C(=O)O.O=C(O)/C=C/C(=O)O [Form D, 5-fluoro-N,N-diisopropyl-2-((4-(7-(((1r,4r)-4-(methylsulfonamido)cyclohexyl)methyl)-2,7-diazaspiro[3.5]nonan-2-yl)pyrimidin-5-yl)oxy)benzamide sesquifumaric acid salt]
Form conversion in water activity slurry [2]: Converted to Form A | Result (solid form after physical stability stress) ([3]; 75% RH, 2 days): Form D

CC(C)N(C(=O)c1cc(F)ccc1Oc1cncnc1N1CC2(CCN(CC3CCC(NS(C)(=O)=O)CC3)CC2)C1)C(C)C.CC(C)N(C(=O)c1cc(F)ccc1Oc1cncnc1N1CC2(CCN(CC3CCC(NS(C)(=O)=O)CC3)CC2)C1)C(C)C.O.O.O=C(O)/C=C/C(=O)O.O=C(O)/C=C/C(=O)O.O=C(O)/C=C/C(=O)O (stereo not drawn) [Form A, 5-fluoro-N,N-diisopropyl-2-((4-(7-(((1r,4r)-4-(methylsulfonamido)cyclohexyl)methyl)-2,7-diazaspiro[3.5]nonan-2-yl)pyrimidin-5-yl)oxy)benzamide sesquifumaric acid salt monohydrate]
Observation (weight change) ([3]; 70° C. vacuum 3 days): no weight change | Result (solid form after physical stability stress) ([3]; 70° C. vacuum 3 days): Form A + peaks | Result (solid form after physical stability stress) ([3]; 95° C., under N2, 2 days): Form A | Observation (LOD) ([3]; 105° C. 3 days): 20% LOD | Result (solid form after physical stability stress) ([3]; 105° C. 3 days): Form A | Observation (weight change) ([3]; ambient vacuum 3 days): no weight change | Result (solid form after physical stability stress) ([3]; ambient vacuum 3 days): Form A | Form change in variable temperature (VT)-XRPD ([3]; heating, XRPD pattern at 165° C.): No form change observed | Changes upon vacuum drying or heating ([3]; vacuum drying or heating): No changes | DVS weight gain [4]: 0.92%

CC(C)N(C(=O)c1cc(F)ccc1Oc1cncnc1N1CC2(CCN(C[C@H]3CC[C@H](NS(C)(=O)=O)CC3)CC2)C1)C(C)C.CC(C)N(C(=O)c1cc(F)ccc1Oc1cncnc1N1CC2(CCN(C[C@H]3CC[C@H](NS(C)(=O)=O)CC3)CC2)C1)C(C)C.O=C(O)/C=C/C(=O)O.O=C(O)/C=C/C(=O)O.O=C(O)/C=C/C(=O)O [Form B, 5-fluoro-N,N-diisopropyl-2-((4-(7-(((1r,4r)-4-(methylsulfonamido)cyclohexyl)methyl)-2,7-diazaspiro[3.5]nonan-2-yl)pyrimidin-5-yl)oxy)benzamide sesquifumaric acid salt]
Form conversion in water activity slurry [2]: Converted to Form A | Form change after 45° C. vacuum oven ([3]; 45° C. vacuum oven): converted to Form D

CCN(C(=O)c1cc(F)ccc1Oc1cncnc1N1CC2(CCN(CC3CCC(NS(=O)(=O)CC)CC3)CC2)C1)C(C)C.CCN(C(=O)c1cc(F)ccc1Oc1cncnc1N1CC2(CCN(CC3CCC(NS(=O)(=O)CC)CC3)CC2)C1)C(C)C.O=C(O)/C=C/C(=O)O.O=C(O)/C=C/C(=O)O.O=C(O)/C=C/C(=O)O (stereo not drawn) [Example 255, N-Ethyl-2-((4-(7-(((1r,4r)-4-(ethylsulfonamido)cyclohexyl)methyl)-2,7-diazaspiro[3.5]nonan-2-yl)pyrimidin-5-yl)oxy)-5-fluoro-N-isopropylbenzamide Sesquifumaric Acid Salt]
Concentration in water to achieve pH=7 [1]: 224.7 mg/mL

CCN(C(=O)c1cc(F)ccc1Oc1cncnc1N1CC2(CCN(CC3CCC(NS(=O)(=O)CC)CC3)CC2)C1)C(C)C.CS(=O)(=O)O.CS(=O)(=O)O (stereo not drawn) [Example 256, N-Ethyl-2-((4-(7-(((1r,4r)-4-(ethylsulfonamido)cyclohexyl)methyl)-2,7-diazaspiro[3.5]nonan-2-yl)pyrimidin-5-yl)oxy)-5-fluoro-N-isopropylbenzamide Bis-Methanesulfonic Acid Salt]
Concentration in water to achieve pH=7 [1]: 261 mg/mL

CCN(C(=O)c1cc(F)ccc1Oc1cncnc1N1CC2(CCN(CC3CCC(NS(=O)(=O)CC)CC3)CC2)C1)C(C)C (stereo not drawn) [Example 254, N-Ethyl-2-((4-(7-(((1r,4r)-4-(ethylsulfonamido)cyclohexyl)methyl)-2,7-diazaspiro[3.5]nonan-2-yl)pyrimidin-5-yl)oxy)-5-fluoro-N-isopropylbenzamide]
Concentration in water to achieve pH=7 [1]: 7.6 mg/mL

— patent US12312359B2 (Vitae Pharmaceuticals, LLC, priority 2016, dated 2025)
